Source: patent publication US20240208992A1, “MACROCYCLES AS CFTR MODULATORS” (Idorsia Pharmaceuticals Ltd, priority 2021, published 2024)
pEC50: −log10 of the molar value.

Target: human F508del-CFTR (Homo sapiens, UniProt P13569, DEL508-508)
Assay: F508del-CFTR cell surface expression (corrector activity), DiscoveRx ß-galactosidase complementation chemiluminescence assay in recombinant U2OS cell line;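 further: U2OS cells co-expressing ProLink-tagged F508del-CFTR and a membrane-anchored enzyme acceptor, where more surface CFTR restores β-galactosidase activity measured by chemiluminescence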
Settings: U2OS cell line, 16h compound incubation; for pEC50: EC50, F508del-CFTR cell surface expression, geomean values; for Emax: U2OS, in relation to the Emax of the corrector lumacaftor (=100%), arithmetic mean values

Sequence of human F508del-CFTR (P13569 with tags, fused parts or gaps DEL508-508): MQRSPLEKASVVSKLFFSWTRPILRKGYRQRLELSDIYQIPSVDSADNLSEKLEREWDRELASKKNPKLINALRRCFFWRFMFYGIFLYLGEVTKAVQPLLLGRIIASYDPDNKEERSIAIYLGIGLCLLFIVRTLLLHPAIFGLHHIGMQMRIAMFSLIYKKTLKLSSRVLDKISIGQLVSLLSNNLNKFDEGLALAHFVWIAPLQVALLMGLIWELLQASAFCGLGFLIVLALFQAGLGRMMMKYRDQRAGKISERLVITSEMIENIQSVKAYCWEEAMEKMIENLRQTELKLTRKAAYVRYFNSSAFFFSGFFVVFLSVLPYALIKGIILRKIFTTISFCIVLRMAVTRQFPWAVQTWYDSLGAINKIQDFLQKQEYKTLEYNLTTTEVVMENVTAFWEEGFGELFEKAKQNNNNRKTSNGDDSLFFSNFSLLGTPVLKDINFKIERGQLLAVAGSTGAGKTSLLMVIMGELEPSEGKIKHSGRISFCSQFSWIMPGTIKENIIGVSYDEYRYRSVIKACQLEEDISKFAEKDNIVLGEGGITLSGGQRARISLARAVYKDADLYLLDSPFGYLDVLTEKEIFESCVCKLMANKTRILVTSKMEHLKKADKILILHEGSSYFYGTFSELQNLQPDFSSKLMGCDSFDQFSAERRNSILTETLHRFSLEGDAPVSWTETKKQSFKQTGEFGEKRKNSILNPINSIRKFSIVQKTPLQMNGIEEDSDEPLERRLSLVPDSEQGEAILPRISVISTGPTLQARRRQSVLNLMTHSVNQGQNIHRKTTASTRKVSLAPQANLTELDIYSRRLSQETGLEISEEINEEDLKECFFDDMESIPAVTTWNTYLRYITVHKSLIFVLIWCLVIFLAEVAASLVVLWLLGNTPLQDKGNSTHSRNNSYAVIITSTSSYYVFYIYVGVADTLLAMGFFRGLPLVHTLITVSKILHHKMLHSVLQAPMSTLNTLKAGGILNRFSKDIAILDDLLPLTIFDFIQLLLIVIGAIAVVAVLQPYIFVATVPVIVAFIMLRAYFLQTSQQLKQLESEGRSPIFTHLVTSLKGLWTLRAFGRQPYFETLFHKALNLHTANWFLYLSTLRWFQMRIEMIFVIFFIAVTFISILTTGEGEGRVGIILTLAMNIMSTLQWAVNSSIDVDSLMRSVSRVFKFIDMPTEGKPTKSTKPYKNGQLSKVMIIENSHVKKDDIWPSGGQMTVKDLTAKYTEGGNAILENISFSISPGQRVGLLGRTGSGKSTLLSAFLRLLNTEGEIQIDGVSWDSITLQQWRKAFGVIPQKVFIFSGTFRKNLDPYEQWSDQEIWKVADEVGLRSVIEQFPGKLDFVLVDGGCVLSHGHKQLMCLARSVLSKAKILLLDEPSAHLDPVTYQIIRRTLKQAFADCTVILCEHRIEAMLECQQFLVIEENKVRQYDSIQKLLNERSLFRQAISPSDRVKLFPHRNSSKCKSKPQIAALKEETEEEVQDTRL

Structure (SMILES) | pEC50 | Emax
CC(C)C[C@H]1C(=O)N2CCOC[C@@H]2C(=O)N[C@H](Cc2ccccc2)COc2cnc3ccccc3c2C(=O)N[C@H](C(=O)NCCc2csc(C(C)C)n2)CC(=O)N1C [Example 46, (9S,13S,19aR,22R)-22-benzyl-13-isobutyl-N-(2-(2-isopropylthiazol-4-yl)ethyl)-12-methyl-7,11,14,20-tetraoxo-7,8,9,10,11,12,13,14,16,17,19,19a,20,21,22,23-hexadecahydro-[1,4]oxazino[3′,4′:6,7][1]oxa[4,7,10,14]tetraazacycloheptadecino[17,16-c]quinoline-9-carboxamide] | 6.17 | 137%
CCc1ccc(CCNC(=O)[C@@H]2CC(=O)N(C)[C@@H](CC(C)C)C(=O)N3CCOC[C@@H]3C(=O)N[C@H](Cc3ccccc3)COc3cnc4ccccc4c3C(=O)N2)cc1 [Example 47, (9S,13S,19aR,22R)-22-benzyl-N-(4-ethylphenethyl)-13-isobutyl-12-methyl-7,11,14,20-tetraoxo-7,8,9,10,11,12,13,14,16,17,19,19a,20,21,22,23-hexadecahydro-[1,4]oxazino[3′,4′:6,7][1]oxa[4,7,10,14]tetraazacycloheptadecino[17,16-c]quinoline-9-carboxamide] | 6.67 | 247%
CC(C)C[C@H]1C(=O)N2CCOC[C@@H]2C(=O)N[C@H](Cc2ccccc2)COc2cnc3ccccc3c2C(=O)N[C@H](C(=O)NCCc2ccc(C(C)(C)C)cc2)CC(=O)N1C [Example 48, (9S,13S,19aR,22R)-22-benzyl-N-(4-(tert-butyl)phenethyl)-13-isobutyl-12-methyl-7,11,14,20-tetraoxo-7,8,9,10,11,12,13,14,16,17,19,19a,20,21,22,23-hexadecahydro-[1,4]oxazino[3′,4′:6,7][1]oxa[4,7,10,14]tetraazacycloheptadecino[17,16-c]quinoline-9-carboxamide] | 6.39 | 151%
CC(C)C[C@H]1C(=O)N2CCOC[C@@H]2C(=O)N[C@H](Cc2ccccc2)COc2cnc3ccccc3c2C(=O)N[C@H](C(=O)NCCc2ccc(Br)cc2)CC(=O)N1C [Example 49, (9S,13S,19aR,22R)-22-benzyl-N-(4-bromophenethyl)-13-isobutyl-12-methyl-7,11,14,20-tetraoxo-7,8,9,10,11,12,13,14,16,17,19,19a,20,21,22,23-hexadecahydro-[1,4]oxazino[3′,4′:6,7][1]oxa[4,7,10,14]tetraazacycloheptadecino[17,16-c]quinoline-9-carboxamide] | 6.46 | 136%
CC(C)C[C@H]1C(=O)N2CCOC[C@@H]2C(=O)N[C@H](Cc2ccccc2)COc2cnc3ccccc3c2C(=O)N[C@H](C(=O)NCCc2ccccc2F)CC(=O)N1C [Example 50, (9S,13S,19aR,22R)-22-benzyl-N-(2-fluorophenethyl)-13-isobutyl-12-methyl-7,11,14,20-tetraoxo-7,8,9,10,11,12,13,14,16,17,19,19a,20,21,22,23-hexadecahydro-[1,4]oxazino[3′,4′:6,7][1]oxa[4,7,10,14]tetraazacycloheptadecino[17,16-c]quinoline-9-carboxamide] | 6.25 | 256%
CC(C)C[C@H]1C(=O)N2CCOC[C@@H]2C(=O)N[C@H](Cc2ccccc2)COc2cnc3ccccc3c2C(=O)N[C@H](C(=O)NCCc2cccc(Cl)c2)CC(=O)N1C [Example 51, (9S,13S,19aR,22R)-22-benzyl-N-(3-chlorophenethyl)-13-isobutyl-12-methyl-7,11,14,20-tetraoxo-7,8,9,10,11,12,13,14,16,17,19,19a,20,21,22,23-hexadecahydro-[1,4]oxazino[3′,4′:6,7][1]oxa[4,7,10,14]tetraazacycloheptadecino[17,16-c]quinoline-9-carboxamide] | 6.45 | 187%
CC(C)C[C@H]1C(=O)N2CCOC[C@@H]2C(=O)N[C@H](Cc2ccccc2)COc2cnc3ccccc3c2C(=O)N[C@H](C(=O)NCCc2cccc(Br)c2)CC(=O)N1C [Example 52, (9S,13S,19aR,22R)-22-benzyl-N-(3-bromophenethyl)-13-isobutyl-12-methyl-7,11,14,20-tetraoxo-7,8,9,10,11,12,13,14,16,17,19,19a,20,21,22,23-hexadecahydro-[1,4]oxazino[3′,4′:6,7][1]oxa[4,7,10,14]tetraazacycloheptadecino[17,16-c]quinoline-9-carboxamide] | 6.46 | 176%
CC(C)C[C@H]1C(=O)N2CCOC[C@@H]2C(=O)N[C@H](Cc2ccccc2)COc2cnc3ccccc3c2C(=O)N[C@H](C(=O)NCCc2ccc3c(c2)OCCO3)CC(=O)N1C [Example 53, (9S,13S,19aR,22R)-22-benzyl-N-(2-(2,3-dihydrobenzo[b][1,4]dioxin-6-yl)ethyl)-13-isobutyl-12-methyl-7,11,14,20-tetraoxo-7,8,9,10,11,12,13,14,16,17,19,19a,20,21,22,23-hexadecahydro-[1,4]oxazino[3′,4′:6,7][1]oxa[4,7,10,14]tetraazacycloheptadecino[17,16-c]quinoline-9-carboxamide] | 6.22 | 404%
CC(C)C[C@H]1C(=O)N2CCOC[C@@H]2C(=O)N[C@H](Cc2ccccc2)COc2cnc3ccccc3c2C(=O)N[C@H](C(=O)NCCc2ccc3c(c2)OCC3)CC(=O)N1C [Example 54, (9S,13S,19aR,22R)-22-benzyl-N-(2-(2,3-dihydrobenzofuran-6-yl)ethyl)-13-isobutyl-12-methyl-7,11,14,20-tetraoxo-7,8,9,10,11,12,13,14,16,17,19,19a,20,21,22,23-hexadecahydro-[1,4]oxazino[3′,4′:6,7][1]oxa[4,7,10,14]tetraazacycloheptadecino[17,16-c]quinoline-9-carboxamide] | 6.25 | 373%
CC(C)C[C@H]1C(=O)N2CCOC[C@@H]2C(=O)N[C@H](Cc2ccccc2)COc2cnc3ccccc3c2C(=O)N[C@H](C(=O)NCCc2ccc(-n3nccn3)cc2)CC(=O)N1C [Example 55, (9S,13S,19aR,22R)-N-(4-(2H-1,2,3-triazol-2-yl)phenethyl)-22-benzyl-13-isobutyl-12-methyl-7,11,14,20-tetraoxo-7,8,9,10,11,12,13,14,16,17,19,19a,20,21,22,23-hexadecahydro-[1,4]oxazino[3′,4′:6,7][1]oxa[4,7,10,14]tetraazacycloheptadecino[17,16-c]quinoline-9-carboxamide] | 6.02 | 245%
CC(C)C[C@H]1C(=O)N2CCOC[C@@H]2C(=O)N[C@H](Cc2ccccc2)COc2cnc3ccccc3c2C(=O)N[C@H](C(=O)NCCc2cccc(-n3nccn3)c2)CC(=O)N1C [Example 56, (9S,13S,19aR,22R)-N-(3-(2H-1,2,3-triazol-2-yl)phenethyl)-22-benzyl-13-isobutyl-12-methyl-7,11,14,20-tetraoxo-7,8,9,10,11,12,13,14,16,17,19,19a,20,21,22,23-hexadecahydro-[1,4]oxazino[3′,4′:6,7][1]oxa[4,7,10,14]tetraazacycloheptadecino[17,16-c]quinoline-9-carboxamide] | 6.12 | 256%
COc1cc(CCNC(=O)[C@@H]2CC(=O)N(C)[C@@H](CC(C)C)C(=O)N3CCOC[C@@H]3C(=O)N[C@H](Cc3ccccc3)COc3cnc4ccccc4c3C(=O)N2)cc(OC)c1 [Example 57, (9S,13S,19aR,22R)-22-benzyl-N-(3,5-dimethoxyphenethyl)-13-isobutyl-12-methyl-7,11,14,20-tetraoxo-7,8,9,10,11,12,13,14,16,17,19,19a,20,21,22,23-hexadecahydro-[1,4]oxazino[3′,4′:6,7][1]oxa[4,7,10,14]tetraazacycloheptadecino[17,16-c]quinoline-9-carboxamide] | 6.38 | 315%
CC(C)C[C@H]1C(=O)N2CCOC[C@@H]2C(=O)N[C@H](Cc2ccccc2)COc2cnc3ccccc3c2C(=O)N[C@H](C(=O)NCCc2ccccc2)CC(=O)N1C [Example 58, (9S,13S,19aR,22R)-22-benzyl-13-isobutyl-12-methyl-7,11,14,20-tetraoxo-N-phenethyl-7,8,9,10,11,12,13,14,16,17,19,19a,20,21,22,23-hexadecahydro-[1,4]oxazino[3′,4′:6,7][1]oxa[4,7,10,14]tetraazacycloheptadecino[17,16-c]quinoline-9-carboxamide] | 6.12 | 175%
COc1ccc(CCNC(=O)[C@@H]2CC(=O)N(C)[C@@H](CC(C)C)C(=O)N3CCOC[C@@H]3C(=O)N[C@H](Cc3ccccc3)COc3cnc4ccccc4c3C(=O)N2)c(F)c1 [Example 59, (9S,13S,19aR,22R)-22-benzyl-N-(2-fluoro-4-methoxyphenethyl)-13-isobutyl-12-methyl-7,11,14,20-tetraoxo-7,8,9,10,11,12,13,14,16,17,19,19a,20,21,22,23-hexadecahydro-[1,4]oxazino[3′,4′:6,7][1]oxa[4,7,10,14]tetraazacycloheptadecino[17,16-c]quinoline-9-carboxamide] | 6.11 | 237%
Cc1ccc(CCNC(=O)[C@@H]2CC(=O)N(C)[C@@H](CC(C)C)C(=O)N3CCOC[C@@H]3C(=O)N[C@H](Cc3ccccc3)COc3cnc4ccccc4c3C(=O)N2)cc1 [Example 60, (9S,13S,19aR,22R)-22-benzyl-13-isobutyl-12-methyl-N-(4-methylphenethyl)-7,11,14,20-tetraoxo-7,8,9,10,11,12,13,14,16,17,19,19a,20,21,22,23-hexadecahydro-[1,4]oxazino[3′,4′:6,7][1]oxa[4,7,10,14]tetraazacycloheptadecino[17,16-c]quinoline-9-carboxamide] | 6.18 | 228%
Cc1ccc(CCNC(=O)[C@@H]2CC(=O)N(C)[C@@H](CC(C)C)C(=O)N3CCOC[C@@H]3C(=O)N[C@H](Cc3ccccc3)COc3cnc4ccccc4c3C(=O)N2)cc1C [Example 61, (9S,13S,19aR,22R)-22-benzyl-N-(3,4-dimethylphenethyl)-13-isobutyl-12-methyl-7,11,14,20-tetraoxo-7,8,9,10,11,12,13,14,16,17,19,19a,20,21,22,23-hexadecahydro-[1,4]oxazino[3′,4′:6,7][1]oxa[4,7,10,14]tetraazacycloheptadecino[17,16-c]quinoline-9-carboxamide] | 6.38 | 202%
